{
  "source": "patent US7923471B2",
  "about": "“Method of treating dry eye disorders and uveitis” (Alcon, Inc., priority 2004, dated 2011)",
  "key": {"[1]": {"test_system": "endotoxin-induced uveitis in rats", "assay": "Endotoxin-induced uveitis in rats: ocular neutrophil (PMN) content by myeloperoxidase activity", "type": "in vivo, female Lewis rats", "conditions": "24 h post endotoxin; for Myeloperoxidase (x ± standard deviation): 5 μL topical ocular at endotoxin injection and 4 h later, vehicle 164 ± 46", "protocol": "Compound 1 was evaluated for its ability to suppress neutrophil influx into the rat eye in a model of endotoxin-induced uveitis. The compound was prepared at concentrations of 0.01%, 0.1%, 1.0% w/v in an ophthalmic suspension vehicle, and dexamethasone (Sigma-Aldrich Company, St. Louis, Mo.) formulated in the same vehicle served as reference compound. Uveitis was induced by subplantar injection of endotoxin (200 μg in 0.1 mL saline) in the right hind paw of female Lewis rats (5/group). Test compound of vehicle (5 μL) was administered topically to each eye of the experimental animals at the time of endoxtoxin injection and again 4 hours later. Twenty four hours post endotoxin injection, animals were sacrificed by CO2 inhalation, and total ocular neutrophil (PMN) content was assessed indirectly by determination of myeloperoxidase activity. Ocular PMN content in each group was then compared with that observed in the vehicle-treated group using Dunnet's t-test."}, "rabbit model of dry eye [2]": {"test_system": "rabbit model of dry eye", "assay": "Rabbit model of dry eye (lacrimal gland ConA injection followed by desiccation): corneal staining with methylene blue", "type": "in vivo, New Zealand white rabbits", "conditions": "50 μl topical twice a day, ConA-injected rabbit eyes, 72 h desiccation", "protocol": "Compound 1 was evaluated in a rabbit model of dry eye. New Zealand white rabbits (approximately 2.5 kg; obtained from Myrtle's Rabbitry, Thompson Station, Tenn.) were randomized and dosed topically twice a day with either 50 μl of compound 1 formulated in 0.064%/BSS® at concentrations of 1, 10, or 100 μM, or with 0.064%/BSS® vehicle. After 24 h the rabbits were anesthetized by subcutaneous administration of ketamine hydrochloride (30 mg/kg) and xylazine (6 mg/kg) and each rabbit received bilateral injections of Conconavilin A (ConA) (300 μg/30 μl) or saline (30 μl). Desiccation was initiated one day following lacrimal gland injection by placing conscious animals in an environmental chamber (20-30% humidity, […]). Following 72 hours of exposure to environment, the animals were assessed for corneal staining upon exposure of the cornea to the dye methylene blue; less staining indicates less damage to the cornea. The rabbits were anesthetized by subcutaneous administration of ketamine hydrochloride (30 mg/kg) and xylazine (6 mg/kg). Sutures were placed in each upper and lower eyelid and lifted to form a corneal/conjunctival cup. Methylene blue dye (1 mL, 1% in distilled water) was added to the cup for five minutes and the excess removed by washing with 200 mL of BSS®. The contralateral eye was then stained using the same procedure. Rabbits were euthanized immediately following the staining procedure and the eyes were excised. The corneas were isolated and a 9.5 mm punch of the cornea was placed overnight in 2 mL of acetone/saturated sodium sulfate (7:3 v/v). The concentration of the extracted dye was determined spectrophotometrically by measuring its absorbance at λ=660 nanometers (A660). Percent inhibition was calculated as {1−[(A660test item−A660Normal)/(A660BSS−A660Normal)]}×100, where A660test item is the absorbance of dye from ConA-injected eyes dosed with compound 1, A660Normal is the absorbance of dye from saline-injected eyes, and A660BSS is the absorbance of dye in ConA-injected eyes dosed with 0.064% ethanol/BSS® solution vehicle. A higher percent inhibition of staining indicates more protection of the cornea from damage.\n(§1) The % inhibition of corneal staining and TBUT data are presented below in table 1, with 15S-HETE (Biomol Research Laboratories, Plymouth Meeting, Pa.) treatment of ConA-injected eyes used as a positive control."}, "rabbit model of dry eye [3]": {"test_system": "rabbit model of dry eye", "assay": "Rabbit model of dry eye (lacrimal gland ConA injection followed by desiccation): tear breakup time (TBUT)", "type": "in vivo, New Zealand white rabbits", "conditions": "ConA-injected rabbit eyes, baseline = saline-injected, vehicle-treated eyes", "protocol": "A second group of animals was evaluated for tear film quality by measuring each animal's tear breakup time (TBUT). Using the same experimental protocol as above for inducing rabbit ocular damage, TBUT was determined daily by instilling 5 μL of sodium fluorescein into the cul de sac and manually blinking the lids to distribute the fluroescein within the tear film. Under slit lamp observation, the eye was held open and the time whereby one or more black spots or streaks appeared in the precorneal tear film was recorded. The rabbits were euthanized 3 days following ConA injection. Larger TBUT values indicate better tear film quality and more protection from ocular damage. TBUT data is expressed as % of baseline, with baseline TBUT being that observed for saline-injected, vehicle-treated eyes.\nas §1"}, "neutrophils": {"test_system": "neutrophils", "conditions": "compared with lipoxin A4; cited from earlier work"}},
  "note": "Marks after values point to notes of the source that are not given here.",
  "data": [
    {"compound": "C[C@@H]1C[C@H]2[C@@H]3CCC4=CC(=O)C=C[C@]4(C)[C@@]3(F)[C@@H](O)C[C@]2(C)[C@@]1(O)C(=O)CO", "note": "[Dexamethasone, dexamethasone, reference compound]", "values": [
      {"measurement": "% inhibition (myeloperoxidase / ocular PMN content vs vehicle)", "setting": "[1]; 0.1 % w/v topical ocular", "result": "91* %"},
      {"measurement": "Myeloperoxidase (x ± standard deviation)", "setting": "[1]; 0.1 % w/v", "result": "15 ± 7", "unit": "μM/min/100 mg"}
    ]},
    {"compound": "CCCCC[C@H](O)/C=C/C=C\\C/C=C\\C/C=C\\CCCC(=O)O", "note": "[Compound 15S-HETE, 15S-HETE, reference compound]", "values": [
      {"measurement": "% Inhibition of Corneal Staining, ±S.D.", "setting": "rabbit model of dry eye [2]; 1 μM", "result": "77 ± 18^b %"},
      {"measurement": "TBUT, % of Baseline, ±S.D.", "setting": "rabbit model of dry eye [3]; 1 μM topical twice a day", "result": "54 ± 21^b % of Baseline"}
    ]},
    {"compound": "CCCCC[C@H](O)[C@H](O)CO", "note": "[Compound 2]", "values": [
      {"measurement": "inhibition of LTB4-induced chemotaxis of neutrophils", "setting": "neutrophils", "result": "as potently as lipoxin A4"}
    ]},
    {"compound": "COC(=O)CCC[C@H](O)[C@H](O)CO", "note": "[Compound 1]", "values": [
      {"measurement": "% Inhibition of Corneal Staining, ±S.D.", "setting": "rabbit model of dry eye [2]; 1 μM", "result": "75 ± 12^b %"},
      {"measurement": "% Inhibition of Corneal Staining, ±S.D.", "setting": "rabbit model of dry eye [2]; 10 μM", "result": "54 ± 9^b,c %"},
      {"measurement": "% Inhibition of Corneal Staining, ±S.D.", "setting": "rabbit model of dry eye [2]; 100 μM", "result": "38 ± 34^b,c %"},
      {"measurement": "inhibition of LTB4-induced chemotaxis of neutrophils", "setting": "neutrophils", "result": "as potently as lipoxin A4"},
      {"measurement": "TBUT, % of Baseline, ±S.D.", "setting": "rabbit model of dry eye [3]; 1 μM topical twice a day", "result": "67 ± 17^b % of Baseline"},
      {"measurement": "TBUT, % of Baseline, ±S.D.", "setting": "rabbit model of dry eye [3]; 10 μM topical twice a day", "result": "45 ± 17^b % of Baseline"},
      {"measurement": "TBUT, % of Baseline, ±S.D.", "setting": "rabbit model of dry eye [3]; 100 μM topical twice a day", "result": "51 ± 18^b % of Baseline"},
      {"measurement": "% inhibition (myeloperoxidase / ocular PMN content vs vehicle)", "setting": "[1]; 0.01 % w/v topical ocular", "result": 13, "unit": "%"},
      {"measurement": "Myeloperoxidase (x ± standard deviation)", "setting": "[1]; 0.01 % w/v", "result": "143 ± 64", "unit": "μM/min/100 mg"},
      {"measurement": "% inhibition (myeloperoxidase / ocular PMN content vs vehicle)", "setting": "[1]; 0.1 % w/v topical ocular", "result": 2, "unit": "%"},
      {"measurement": "Myeloperoxidase (x ± standard deviation)", "setting": "[1]; 0.1 % w/v", "result": "161 ± 37", "unit": "μM/min/100 mg"},
      {"measurement": "% inhibition (myeloperoxidase / ocular PMN content vs vehicle)", "setting": "[1]; 1.0 % w/v topical ocular", "result": "41* %"},
      {"measurement": "Myeloperoxidase (x ± standard deviation)", "setting": "[1]; 1.0 % w/v", "result": "97 ± 35", "unit": "μM/min/100 mg"}
    ]}
  ]
}
